Here are results for three compounds from patent publication US11819019B2, “Protein-free semen cryopreservation” (University of Saskatchewan, priority 2017, dated 2023).

Where no end group is shown, it is not given here. [ ]: non-standard residue; d: D form. Dmt = Cc1cc(O)cc(C)c1C[C@H](N)C(=O)O

The subject of data set [1] is bull sperm. In words: Motility of fresh bull sperm after exposure to cell penetrating peptides, CASA (Example 8). It is filed as cell-based. To be noted: CPPs added at 37° C., FIG. 13. The protocol: Semen was collected from four bulls using electro-ejaculator. Semen was analyzed with Computer Assisted Semen Analysis (CASA) and washed (2×) with tris citric acid buffer (TB). The washed semen was diluted to 2.2 million/ml with TB. Semen (46 μl) was mixed with 4 μl of 100 μM solution of SS31 or mTP4. TB buffer alone was added in the control sample. […] After incubation, sperm motility was analyzed by CASA and then cells were treated with 2.5 μl propidium iodide (50 μg/ml) or 3 μl SYBR-14. Sperm were fixed with 10 μl of 10%-formaldehyde and another 500 μl PBS was added before flowcytometry analysis.

Data set [2] has as its system bull sperm. Briefly: Frozen-thaw longevity of bull sperm with cell penetrating peptides, CASA at 0, 2 and 4 hrs (Example 8). Format: cell-based. On the procedure:
Semen was collected from four beef bulls using electro-ejaculator. Immediately after collection, 0.5 μM SS31 or mTP4 was added per ml semen. Concentration of up to 20 μM SS31 or mTP4 were also used. Semen transported to Cryobiology Lab where semen was analyzed with CASA. Semen was further diluted with egg yolk extender to 50 million per ml, packaged in straws and frozen following a freezing curve developed in our lab. Frozen semen with and without SS31 was thawed and CASA analysis was conducted at 0 (<15 min), 2 and 4 hrs. Structural characters, i.e. plasma membrane and acrosome, were also analyzed using FITC-PNA and PI assay with flow cytometer, as described in Examples 4 and 5.

The next data set concerns equine sperm. Particulars: Vidament et al, 2005; cited from earlier work.

In the case of “DMT-D-MWWRRSRTNSLRYT ([Dmt][dM]WWRRSRTNSLRYT) [mTP4]”, the “sperm motility and progressive motility as compared control” value in the data set with bull sperm [1] is given as “improved”.
D-Arg-DMT-Lys-Phe [SS31]: the “Percent decline motility over time” value with bull sperm [2] (4 hr post-thaw, vs control and mTP4 groups, FIG. 15) was “lesser”. In addition, in the data set on bull sperm [2] (semen frozen in egg yolk extender, 0, 2 and 4 hrs post-thaw, FIG. 14), the “post-thaw total sperm motility and progressive motility vs control” value was “better”. Besides, the “sperm motility and progressive motility as compared control” value in the data set with bull sperm [1] is on record as “improved”.
`OCC(O)CO` [Glycerol, glycerol]: in the data set with equine sperm, the “concentration in a preservation medium reported to be toxic to equine sperm” value is on record as “greater than 3.5%”.
